For 1 compound, Stability results are on record in ChEMBL document CHEMBL3774338 (J Med Chem, 2016).

This series in a line: Chemical stability assessed as oxidation mediated drug degradation at room temperature exposed to air by mass spectrometric analysis. It counts as physicochemical.

In the case of `O=c1[nH]cnc2c(-n3cc(CCN4CCC(c5cc(F)cc(F)c5)CC4)cn3)nccc12`, the Stability entry is “Unstable”.
